Assay results reported in patent publication US12336537B2, “Fungicidal compositions” (SYNGENTA CROP PROTECTION AG, priority 2020, dated 2025).

Assays:
[1] = tested on: Puccinia recondita f. sp. tritici; conditions: in Triticum aestivum, foliar, read-out: control of Puccinia recondita f, sp. tritici
Protocol: Example A10: Puccinia recondita f. sp. tritici/Wheat/Leaf Disc Preventative (Brown Rust)
Wheat leaf segments cv. Kanzler are placed on agar in multiwell plates (24-well format) and sprayed with the formulated test compound diluted in water. The leaf disks are inoculated with a spore suspension of the fungus 1 day after application. The inoculated leaf segments are incubated at 19° C. and 75% rh under a light regime of 12 h light/12 h darkness in a climate cabinet and the activity of a compound is assessed as percent disease control compared to untreated when an appropriate level of disease damage appears in untreated check leaf segments (7-9 days after application).

[2] = tested on: Mycosphaerella arachidis (Cercospora arachidicola); experiment: Example A7: Mycosphaerella arachidis (Cercospora arachidicola) / liquid culture (early leaf spot); assay type: cell-based; conditions: 4-5 days after application, compared to untreated control
[3] = tested on: Glomerella lagenarium (Colletotrichum lagenarium); experiment: Example A3: Glomerella lagenarium (Colletotrichum lagenarium) / liquid culture (anthracnose); assay type: cell-based; conditions: Colletotrichum orbiculare, 3-4 days after application, compared to untreated control

Row | Structure (SMILES) | pest or weed control at 200 ppm [1] [%] | inhibition of growth at 20 ppm [2] [%] | inhibition of growth at 20 ppm [3] [%]
1 | Cc1sc(N(C#N)c2cc(F)nc(F)c2)nc1C(=O)NCC(C)C [X.15, 2-[cyano-(2,6-difluoro-4-pyridyl)amino]-N-isobutyl-5-methyl-thiazole-4-carboxamide] | ≥ 80 | ≥ 80 | –
2 | CCCCCCNC(=O)c1nc(N(C#N)c2cc(F)nc(F)c2)sc1C [X.14, 2-[cyano-(2,6-difluoro-4-pyridyl)amino]-N-hexyl-5-methyl-thiazole-4-carboxamide] | ≥ 80 | – | –
3 | Cc1sc(N(C#N)c2cc(F)cc(F)c2)nc1C(=O)NC1(C)CCCC1 [X.11, 2-(N-cyano-3,5-difluoro-anilino)-5-methyl-N-(1-methylcyclopentyl)thiazole-4-carboxamide] | ≥ 80 | – | –
4 | Cc1sc(N(C#N)c2cc(F)nc(F)c2)nc1C(=O)NC1CCC1(C)C (stereo not drawn) [X.05, 2-[cyano-(2,6-difluoro-4-pyridyl)amino]-N-(2,2-dimethylcyclobutyl)-5-methyl-thiazole-4-carboxamide] | ≥ 80 | – | –
5 | Cc1sc(N(C#N)c2cc(F)nc(F)c2)nc1C(=O)NC(C)c1ccccc1 (stereo not drawn) [X.16, 2-[cyano-(2,6-difluoro-4-pyridyl)amino]-5-methyl-N-(1-phenylethyl)thiazole-4-carboxamide] | ≥ 80 | – | –
6 | Cc1sc(N(C#N)c2cc(F)nc(F)c2)nc1C(=O)NCC(C)(C)C [X.18, 2-[cyano-(2,6-difluoro-4-pyridyl)amino]-N-(2,2-dimethylpropyl)-5-methyl-thiazole-4-carboxamide] | ≥ 80 | – | –
7 | Cc1sc(N(C#N)c2cc(F)nc(F)c2)nc1C(=O)NC1(C)CCCC1 [X.12, 2-[cyano-(2,6-difluoro-4-pyridyl)amino]-5-methyl-N-(1-methylcyclopentyl)thiazole-4-carboxamide] | ≥ 80 | – | –
8 | Cc1sc(N(C#N)c2cc(F)nc(F)c2)nc1C(=O)NC1CCC12Cc1ccccc1C2 (stereo not drawn) [X.08, 2-[cyano-(2,6-difluoro-4-pyridyl)amino]-5-methyl-N-spiro[cyclobutane-2,2′-indane]-1-yl-thiazole-4-carboxamide] | ≥ 80 | – | –
9 | Cc1sc(N(C#N)c2cc(F)cc(F)c2)nc1C(=O)NC1CCC1(C)C (stereo not drawn) [X.03, 2-(N-cyano-3,5-difluoro-anilino)-N-(2,2-dimethylcyclobutyl)-5-methyl-thiazole-4-carboxamide] | ≥ 80 | – | –
10 | Cc1sc(N(C#N)c2cc(F)nc(F)c2)nc1C(=O)NCc1ccccc1 [X.23, N-benzyl-2-[cyano-(2,6-difluoro-4-pyridyl)amino]-5-methyl-thiazole-4-carboxamide] | ≥ 80 | – | –
11 | Cc1sc(N(C#N)c2cc(F)nc(F)c2)nc1C(=O)NC1CCC12CCCC2 (stereo not drawn) [X.07, 2-[cyano-(2,6-difluoro-4-pyridyl)amino]-5-methyl-N-spiro[3.4]octan-3-yl-thiazole-4-carboxamide] | ≥ 80 | – | –
12 | CCCCCNC(=O)c1nc(N(C#N)c2cc(F)nc(F)c2)sc1C [X.20, 2-[cyano-(2,6-difluoro-4-pyridyl)amino]-5-methyl-N-pentyl-thiazole-4-carboxamide] | ≥ 80 | – | ≥ 80
13 | CCCCNC(=O)c1nc(N(C#N)c2cc(F)nc(F)c2)sc1C [X.24, N-butyl-2-[cyano-(2,6-difluoro-4-pyridyl)amino]-5-methyl-thiazole-4-carboxamide] | ≥ 80 | – | –
14 | Cc1sc(N(C#N)c2cc(F)nc(F)c2)nc1C(=O)NC1CCC1 [X.02, 2-[cyano-(2,6-difluoro-4-pyridyl)amino]-N-cyclobutyl-5-methyl-thiazole-4-carboxamide] | ≥ 80 | – | –
15 | Cc1sc(N(C#N)c2cc(F)nc(F)c2)nc1C(=O)NCC1(CC2CC2)CC1 [X.10, 2-[cyano-(2,6-difluoro-4-pyridyl)amino]-N-[[1-(cyclopropylmethyl)cyclopropyl]methyl]-5-methyl-thiazole-4-carboxamide] | ≥ 80 | – | –
16 | Cc1sc(N(C#N)c2cc(F)nc(F)c2)nc1C(=O)NC1CCC12CCC2 (stereo not drawn) [X.09, 2-[cyano-(2,6-difluoro-4-pyridyl)amino]-5-methyl-N-spiro[3.3]heptan-3-yl-thiazole-4-carboxamide] | ≥ 80 | – | –
